# Reference: US20100292210A1, “Novel Compounds for A-Beta-Related Pathologies” (AstraZeneca AB, priority 2009, published 2010)
# Test system: Aβ42 release
# Test: Aβ42 release from HEK cells stably expressing APPswe, Meso Scale Discovery electrochemiluminescence assay
# Assay type: cell-based
# Details: Homo sapiens, HEK293; HEK cell line stably expressing APPswe; 4-6 h incubation with test compound; Aβ42 secreted to cell medium; read-out: pIC50 values of Aβ42 release (converted)
# Experimental: The level of activity of the compounds on Aβ formation was tested using the following method:
# Compounds were diluted in 100% DMSO and stored at […] prior to use. Human Embryonic Kidney (HEK) cell line stably expressing APP with the Swedish mutation (APPswe) were cultured using Dulbecco's Modified Eagles medium (DMEM) supplied with […] glucose, Na-pyruvate and GlutaMAX with 10% FBS, 100 U/ml penicillin-streptomycin (PEST) respectively, 1×non-essential amino acids (NEAA), […], 100 μg/ml Zeocine. Cells at about 80% confluence were washed with PBS, detached from culture flasks using 1×Trypsin/EDTA diluted in PBS, re-suspended in cell media and plated in 384-well poly-d-lysine coated cell culture plates at about 10000-15000 cells/well, in 25 μL cell media. Optionally, cryo-preserved cells (frozen and stored at −140° C. in 90% cell media and 10% DMSO) were thawed, washed and plated as above. Next the cells were incubated for 15-24 h at 37° C. and 5% CO2, after which cell medium was changed. Fresh medium containing test compound diluted ×200 from prepared compound plate was added to the cells before further incubation for 4-6 hours at 37° C. and 5% CO2. After incubation with test compound the amount of Aβ peptides, including Aβ42, Aβ40, Aβ39, Aβ38 and Aβ37, secreted to cell medium was analyzed using the electrochemiluminescence assay technology from Meso Scale Discovery Technology, in combination with specific antibodies raised against the different Aβ peptides. Potential cytotoxic effects of the compounds were usually assayed by measuring the ATP content (ViaLight) from cell lysate.
row,SMILES,IC50 [µM]
1,"Cc1noc(-c2ccc(Nc3ccc4c(n3)OC(c3ccccc3)CN(C)C4=O)cc2)n1 (stereo not drawn) [Example 1, 4-methyl-8-(4-(3-methyl-1,2,4-oxadiazol-5-yl)phenylamino)-2-phenyl-3,4-dihydropyrido[3,2-f][1,4]oxazepin-5(2H)-one]",1.58
2,"Cc1nccn1-c1ccc(Nc2ccc3c(n2)OC(c2ccccc2)CN(C)C3=O)cc1 (stereo not drawn) [Example 2, 4-methyl-8-(4-(2-methyl-1H-imidazol-1-yl)phenylamino)-2-phenyl-3,4-dihydropyrido[3,2-f][1,4]oxazepin-5(2H)-one]",1.26
3,"CN1CC(c2ccccc2)Oc2nc(Nc3ccc(-c4cnco4)cc3)ccc2C1=O (stereo not drawn) [Example 3, 4-methyl-8-(4-(1,3-oxazol-5-yl)phenylamino)-2-phenyl-3,4-dihydropyrido[3,2-f][1,4]oxazepin-5(2H)-one]",0.398
4,"COc1cc(Nc2ccc3c(n2)OC(c2ccccc2)CN(C)C3=O)ccc1-n1cnc(C)c1 (stereo not drawn) [Example 4, 8-(3-methoxy-4-(4-methyl-1H-imidazol-1-yl)phenylamino)-4-methyl-2-phenyl-3,4-dihydropyrido[3,2-f][1,4]oxazepin-5(2H)-one]",0.2
5,"CN1CC(c2ccccc2)Oc2nc(Nc3ccc(-n4ccnc4)cc3)ccc2C1=O (stereo not drawn) [Example 5, 8-(4-(1H-imidazol-1-yl)phenylamino)-4-methyl-2-phenyl-3,4-dihydropyrido[3,2-f][1,4]oxazepin-5(2H)-one]",1
6,"Cc1nccn1-c1ccc(Nc2ccc3c(n2)OC(c2ccccc2)CN(C)C3=O)cn1 (stereo not drawn) [Example 6, 4-methyl-8-(6-(2-methyl-1H-imidazol-1-yl)pyridin-3-ylamino)-2-phenyl-3,4-dihydropyrido[3,2-f][1,4]oxazepin-5(2H)-one]",6.31
7,"COc1cc(Nc2ccc3c(n2)OC(c2ccccc2)CN(C)C3)ccc1-n1cnc(C)c1 (stereo not drawn) [Example 7, N-(3-methoxy-4-(4-methyl-1H-imidazol-1-yl)phenyl)-4-methyl-2-phenyl-2,3,4,5-tetrahydropyrido[3,2-f][1,4]oxazepin-8-amine]",0.0398
8,"Cc1nccn1-c1ccc(Nc2ccc3c(n2)OC(c2ccccc2)CN(C)C3)cc1 (stereo not drawn) [Example 8, 4-Methyl-N-(4-(2-methyl-1H-imidazol-1-yl)phenyl)-2-phenyl-2,3,4,5-tetrahydropyrido[3,2-f][1,4]oxazepin-8-amine]",0.158
9,"COc1nc(Nc2ccc3c(n2)O[C@H](c2ccccc2)CN(C)C3)ccc1-n1cnc(C)c1 [Example 9, (R)—N-(6-methoxy-5-(4-methyl-1H-imidazol-1-yl)pyridin-2-yl)-4-methyl-2-phenyl-2,3,4,5-tetrahydropyrido[3,2-f][1,4]oxazepin-8-amine]",0.00794
10,"COc1cc(Nc2ccc3c(n2)O[C@H](c2ccccc2)CN(C)C3)ccc1-n1cnc(C)c1 [Example 10, (R)—N-(3-methoxy-4-(4-methyl-1H-imidazol-1-yl)phenyl)-4-methyl-2-phenyl-2,3,4,5-tetrahydropyrido[3,2-f][1,4]oxazepin-8-amine]",0.0126
11,"COc1nc(Nc2ccc3c(n2)O[C@H](c2ccccc2)CN(C(C)=O)C3)ccc1-n1cnc(C)c1 [Example 11, (R)-1-(8-(6-methoxy-5-(4-methyl-1H-imidazol-1-yl)pyridin-2-ylamino)-2-phenyl-2,3-dihydropyrido[3,2-f][1,4]oxazepin-4(5H)-yl)ethanone]",0.0158
12,"COc1cc(Nc2ncc3c(n2)O[C@H](c2ccccc2)CN(CCF)C3)ccc1-n1cnc(C)c1 [Example 12, (R)-6-(2-fluoroethyl)-N-(3-methoxy-4-(4-methyl-1H-imidazol-1-yl)phenyl)-8-phenyl-5,6,7,8-tetrahydropyrimido[5,4-f][1,4]oxazepin-2-amine]",0.0158
13,"COc1cc(Nc2ncc3c(n2)O[C@H](c2ccccc2)CN(C)C3)ccc1-n1cnc(C)c1 [Example 13, (R)—N-(3-methoxy-4-(4-methyl-1H-imidazol-1-yl)phenyl)-6-methyl-8-phenyl-5,6,7,8-tetrahydropyrimido[5,4-f][1,4]oxazepin-2-amine]",0.02
14,"COc1cc(Nc2ccc3c(n2)OC(c2ccccc2)CN(CC#N)C3)ccc1-n1cnc(C)c1 (stereo not drawn) [Example 14, 2-(8-(3-methoxy-4-(4-methyl-1H-imidazol-1-yl)phenylamino)-2-phenyl-2,3-dihydropyrido[3,2-f][1,4]oxazepin-4(5H)-yl)acetonitrile]",0.02
15,"COc1cc(Nc2ccc3c(n2)OC(c2ccccc2)CN(CCF)C3)ccc1-n1cnc(C)c1 (stereo not drawn) [Example 15, 4-(2-fluoroethyl)-N-(3-methoxy-4-(4-methyl-1H-imidazol-1-yl)phenyl)-2-phenyl-2,3,4,5-tetrahydropyrido[3,2-f][1,4]oxazepin-8-amine]",0.0316
16,"Cc1cn(-c2ccc(Nc3ccc4c(n3)OC(c3ccccc3)CN(C)C4)cc2F)cn1 (stereo not drawn) [Example 16, N-(3-fluoro-4-(4-methyl-1H-imidazol-1-yl)phenyl)-4-methyl-2-phenyl-2,3,4,5-tetrahydropyrido[3,2-f][1,4]oxazepin-8-amine]",0.0794
17,"COc1cc(Nc2ccc3c(n2)OC(c2ccccc2)CN(C(C)=O)C3)ccc1-n1cnc(C)c1 (stereo not drawn) [Example 17, 1-(8-(3-methoxy-4-(4-methyl-1H-imidazol-1-yl)phenylamino)-2-phenyl-2,3-dihydropyrido[3,2-f][1,4]oxazepin-4(5H)-yl)ethanone]",0.0794
18,"CN1Cc2ccc(Nc3ccc(-n4ccnc4)cc3)nc2OC(c2ccccc2)C1 (stereo not drawn) [Example 18, N-(4-(1H-imidazol-1-yl)phenyl)-4-methyl-2-phenyl-2,3,4,5-tetrahydropyrido[3,2-f][1,4]oxazepin-8-amine]",0.1
19,"COc1cc(Nc2ccc3c(n2)OC(c2cccnc2)CN(C)C3)ccc1-n1cnc(C)c1 (stereo not drawn) [Example 19, N-(3-methoxy-4-(4-methyl-1H-imidazol-1-yl)phenyl)-4-methyl-2-(pyridin-3-yl)-2,3,4,5-tetrahydropyrido[3,2-f][1,4]oxazepin-8-amine]",0.158
20,"COc1cc(Nc2ccc3c(n2)OC(c2ccccc2)CN(CCO)C3=O)ccc1-n1cnc(C)c1 (stereo not drawn) [Example 20, 4-(2-Hydroxyethyl)-8-(3-methoxy-4-(4-methyl-1H-imidazol-1-yl)phenylamino)-2-phenyl-3,4-dihydropyrido[3,2-f][1,4]oxazepin-5(2H)-one]",0.2
21,"COc1cc(Nc2ccc3c(n2)O[C@@H](c2ccccc2)CN(C)C3)ccc1-n1cnc(C)c1 [Example 21, (S)—N-(3-methoxy-4-(4-methyl-1H-imidazol-1-yl)phenyl)-4-methyl-2-phenyl-2,3,4,5-tetrahydropyrido[3,2-f][1,4]oxazepin-8-amine]",0.2
22,"COc1cc(Nc2ccc3c(n2)OC(c2cccnc2)CN(C(C)=O)C3)ccc1-n1cnc(C)c1 (stereo not drawn) [Example 22, 1-(8-(3-Methoxy-4-(4-methyl-1H-imidazol-1-yl)phenylamino)-2-(pyridin-3-yl)-2,3-dihydropyrido[3,2-f][1,4]oxazepin-4(5H)-yl)ethanone]",0.501
23,"Cc1nccn1-c1ccc(Nc2ccc3c(n2)OC(c2ccccc2)CN(C)C3)cn1 (stereo not drawn) [Example 23, 4-methyl-N-(6-(2-methyl-1H-imidazol-1-yl)pyridin-3-yl)-2-phenyl-2,3,4,5-tetrahydropyrido[3,2-f][1,4]oxazepin-8-amine]",0.501
24,"Cc1nccn1-c1ccc(Nc2ccc3c(n2)OC(c2ccccc2)CN(CCO)C3=O)cc1 (stereo not drawn) [Example 24, 4-(2-hydroxyethyl)-8-(4-(2-methyl-1H-imidazol-1-yl)phenylamino)-2-phenyl-3,4-dihydropyrido[3,2-f][1,4]oxazepin-5(2H)-one]",0.794
